The record followed here is patent publication US20080206253A1, “Method For Preventing or Treating Pain in a Mammal” (priority 2005, published 2008).

What all share (format): in vivo, rat
Test [1] relates to rats, formalin-injected hind paw. As to the kind of experiment: Formalin-induced flinching (paw formalin test). Conditions: IT injection 3-30 μg 10 minutes prior to formalin; 30 μg: P<0.05 versus vehicle. The procedure:
In recent work it was shown that inhibition of spinal p38 MAP kinase attenuated formalin-induced flinching. Svensson et al., J Neurochem 86: 1534-1544, 2003b. To examine the contribution of p38α and p38β in this experimental model of hyperalgesia, animals were injected with p38α, p38β AS or MS IT for five days. These animals were then examined on the formalin test. Unilateral intraplantar formalin solution (2.5%) caused a biphasic flinching pattern where the first 9 minutes are referred to as phase I and the following 50 minutes (min 10-60) as phase II. Yaksh et al., J Neurosci 21: 5847-5853, 2001a. The phase II flinching is considered to represent afferent input initiated spinal facilitation. Dickenson and Sullivan, Neurosci Lett 83: 207-211, 1987; Puig and Sorkin, Pain 64: 345-355, 1996. […] To further confirm the role of p38 to injury-induced pain behavior, a pharmacological inhibitor was also studied: SB203580, a p38α/β non-selective inhibitor.
To quantify formalin induced flinching, an automated sensing system was employed. Yaksh et al., J Appl Physiol 90: 2386-2402, 2001b. Briefly, a soft metal band was placed on the hind paw of the animal being tested. Animals were allowed to acclimate in individual Plexiglas chambers for 30 min before being moved to a test chamber. Just before the animals were placed into the test chamber, they were briefly restrained in a cloth towel, and 2.5% formalin (50 μl) was injected into the dorsal side of the banded paw. Nociceptive behavior was quantified by automatically counting the incidences of spontaneous flinching or shaking of the injected paw. The flinches were counted for 1-min periods for 60 minutes and the flinch data are expressed as number of flinches per min and total flinches observed during phase I (0-9 min) and phase II (10-60 min).

Another test relates to PGE2. Briefly: IT SP-evoked spinal PGE2 release (intrathecal dialysis, ELISA). The source says: It was previously shown that intrathecal injection of SP and NMDA, but not vehicle, evokes PGE2 release assessed by spinal dialysis. Hua et al., Neuroscience 89: 525-534, 1999b.; Svensson et al., Neuroreport 14: 1153-1157, 2003a. It has been reported that PLA2 which generates free arachidonic acid necessary for eicosanoid synthesis, requires phosphorylation to become fully activated and that this phosphorylation can be mediated by p38 MAP kinase. Borsch-Haubold et al., Eur J Biochem 245: 751-759, 1997. The effect of spinal p38α/β inhibition was assessed on IT S P-evoked PGE2 release by injecting SB203580 15 min prior to IT SP. Resting release of PGE2 was determined after a washout period of 30 min. In the absence of pretreatment, baseline dialysate concentrations were determined to be 243±13 femtomol/100 μl perfusate (N=20). If SP (30 nmol) produced a 6-8 fold increase in PGE2 level in intrathecal CSF (FIG. 8A). […] If injection of vehicle prior to IT SP ad no effect on IT SP-evoked PGE2 release.
(A) Bar graph showing PGE2 concentration (fmol/100 μl) measured in cerebrospinal fluid collected by in vivo spinal dialysis of conscious rats before and after IT injection of substance P(SP, 30 nmol) and SB302580 (30 μg). Spinal dialysate is removed and assayed for PGE2 by ELISA at baseline (B, average of two 15 min fractions collected prior to IT injection of SP) and F1: 0-15 minutes, F2: 15-30 minutes and F3: 30-45 minutes and 45-60 minutes after SP injection. Rats received IT SP or IT SB203580 (α/βp38 inhibitor) 15 minutes prior to IT SP. (B) PGE2 release is presented as area under curve (AUC) calculated 60 minutes after IT injection of SP with or without pretreatment with p38 inhibitors. […] Each bar represents the average and SEM for 4-8 rats per group and (*) represents P<[…] versus baseline.
Intrathecal Dialysis & PGE2 assay. Dialysis experiments were conducted in unanethetized rats 4-5 days after the implant. […] The concentration of PGE2 in spinal dialysate was measured by ELISA using a commercially available kit (Assay Designs 90001, Assay Designs, Ann Arbor, Mich.). […]

The test system of test [2] is rats, IT SP (spinal NK-1 receptors). As to the kind of experiment: IT substance P-evoked thermal hyperalgesia (paw withdrawal latency, Hargreaves device). The conditions noted are these: IT SP 30 nmol at T=0, versus IT saline. The method, then: (§1) Yaksh et al., Nature 286: 155-157, 1980; Yaksh, Trends Pharmacol Sci 20: 329-337, 1999. […] Malmberg and Yaksh, Science 257: 1276-1279, 1992; Svensson et al., J Neurochem 86: 1534-1544, 2003. […] To investigate the contribution of p38α and p38β to SP-evoked hyperalgesia and p38 phosphorylation, spinal delivery of p38α and p38β AS and MS was carried out. Thermal withdrawal latencies was assessed after IT injection of SP and lumbar spinal cords collected immediately to compare the degree of spinal p38 phosphorylation at the hypothesized time of peak phosphorylation. IT injection of SP into the MS group produced an expected reduction of thermal withdrawal latency in comparison with IT saline injection into to vehicle treated animals (FIG. 7C). […] In contrast, IT SP-induced thermal hyperalgesia was attenuated in rats which had received p38β AS (FIG. 7E). […] Stripping and reprobing the western blot membranes confirmed that p38α protein expression was knocked down in p38α AS treated group (FIG. 7D) as well as p38β in the p38β AS group (FIG. 7F).
Nociceptive models. To directly induce spinal sensitization, rats received intrathecal injections of sP (30 nmol) which activates spinal NK-1 receptors and produces thermal hyperalgesia. Hua et al., Neuroscience 89: 525-534, 1999a; Piercey et al., Science 214: 1361-1363, 1981; Yashpal and Henry, Can J Physiol Pharmacol 61: 303-307, 1983. Thermally evoked paw withdrawal responses were assessed using a Hargreaves type testing device. Dirig et al., J Neurosci Methods 76: 183-191, 1997. Briefly, rats were placed on a glass surface maintained at 30° C. The thermal nociceptive stimulus originates from a projection bulb below the glass surface, and the stimulus is delivered separately to one hind paw at a time. The animals were allowed to acclimatize on the glass surface and basal paw withdrawal latencies (PWL) were then assessed for left and right paws at time (T)=−40, =30 and −20 min and expressed as the mean of the six measurements. At T=−10 min the animals received intrathecal vehicle or drug and at T=0, sP was injected. Withdrawal latencies were then assessed at T=15, 30, 45 and 60 min. Paw withdrawal latency for each group was expressed as the mean at each time point.

The subject of test [3] is phosphorylated p38 (P-p38). As to the kind of experiment: IT substance P-evoked spinal p38 phosphorylation (Western blot). The conditions noted are these: IT SP 30 nmol, at 30 min, N=6, P<0.05. The method, then: as §1
(A) Graph displaying paw withdrawal latency (PWL) plotted versus time. […] (B) Representative western blots showing levels of P-p38, total p38 and β-actin in lumbar spinal cord at different time points after IT injection of SP (30 nmol). IT-SP induced p38 phosphorylation peaks 30 minutes after SP injection. (C, E) Graph showing PWL assessed 15 and […] after bolus injection of IT saline or IT SP injection in rats treated with IT ACSF, MS (30 μg), p38α AS (30 fig) or p38β AS (20 μg) daily for five days. […] IT injection of MS or ACSF had no effect on IT SP-evoked thermal hyperalgesia. Each time point represents the mean ±SEM (n=4-5 per group). (D, F) Representative western blots showing the level of P-p38, p38α and p38β and β-actin protein expression assessed 30 minutes after IT SP injection.
Western blot. Prior to sacrifice, rats were deeply anesthetized and after decapitation the spinal cords were ejected from the vertebral column by a saline-filled syringe. The lumbar part of the spinal cord was immediately homogenized in extraction buffer (50 mM Tris buffer, pH 8.0, containing 0.5% Triton X-100, 150 mM NaCl, 1 mM EDTA, phosphatase and protease inhibitors) by sonication. […] After washing, the antibody-protein complexes were probed with appropriate secondary antibodies labeled with horseradish peroxidase for 1 hr at room temperature and detected with chemiluminescent reagents (SuperSignal, Pierce, Rockford, Ill.). […] Intensity of immunoreactive bands was quantified using ImageQuant software (Molecular Dynamics, Sunnyvale, Calif.). p38 immuno-positive bands were normalized relative to β-actin.
In general terms: A western blot detects proteins with antibodies after separation by electrophoresis.

“Also recorded” adds a separate entry of the source. No end group written: not given here.

As for `C[S+]([O-])c1ccc(-c2nc(-c3ccncc3)c(-c3ccc(F)cc3)[nH]2)cc1` (stereo not drawn) [SB203580, reference compound], the “flinching during phase II” value in test [1] is “dose-dependent attenuation; also recorded: statistically different”. In addition, the “SP-evoked release of PGE2, AUC between groups” value in the test on PGE2 (30 μg IT prior to SP, AUC 60 minutes after IT SP, unpaired t-test P<0.05) was “significantly lower”. For the same molecule, the “IT SP-evoked PGE2 release” value with PGE2 (pretreatment 30 μg IT, 15 min prior to IT SP 30 nmol) is “prevented IT SP-evoked PGE2 release”.
“SP: substance P (Sigma), injected IT to activate spinal NK-1 receptors and produce thermal hyperalgesia (RPKPQQFFGLM-NH2; UniProt P20366 58-68, looked up) [reference compound]”: the “paw withdrawal latency (PWL) after IT injection” value in test [2] was “transient decrease in PWL”. In addition, the “phosphorylation of spinal p38, peak effect, increase as compared to saline group” value in test [3] is listed as 224±41%. The “increase in PGE2 level in intrathecal CSF” value with PGE2 (IT SP 30 nmol, spinal dialysis, conscious rats) is 6-8 fold.
